# Results published in patent US6914045B2, “Glycopeptide antibiotics” (Wyeth Holdings Corporation, priority 2001, dated 2005).
# What was measured:
# Experiment in all cases: in vitro antibacterial evaluation, MIC by broth dilution
# Format in all cases: cell-based
# Enterococcus sp. = settings: broth dilution, 18 hours at 35° C.
# Summary of the method: (§1)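 Following National Committee for Clinical Laboratory Standards recommendations (M7-A2), susceptibility was measured by dilution in Muller-Hinton II […]. Bacteria were seeded at 5×10^5 CFU/mL against compound concentrations from 64 down to 0.06 μg/mL.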
# Escherichia coli = settings: 18 hours at 35° C.
# Summary of the method: as §1
# Staphylococcus sp. = settings: broth dilution, 18 hours at 35° C.
# Summary of the method: as §1
# Streptococcus sp. = settings: broth dilution, 18 hours at 35° C.
# Summary of the method: as §1
compound,measurement,setting,value
CC(c1ccccc1)C1NC(=O)CNC(=O)C(CO)NC(=O)C(C(O)C2CNC(=N)N2C2OC(CO)C(O)C(O)C2O)NC(=O)C(C(O)C2CNC(=N)N2)NC(=O)C(Cc2ccc(OC3OC(CO)C(OC4OC5COC(c6ccsc6)OC5C(O)C4O)C(O)C3O)cc2)NC1=O (stereo not shown) [Example 133],MIC Enterococcus avium (GC 4558),Enterococcus sp.; Enterococcus avium (GC 4558),8 µg/mL
same,MIC Enterococcus faecalis (ATCC 29212),Enterococcus sp.; Enterococcus faecalis (ATCC 29212),8 µg/mL
same,MIC Enterococcus faecalis (GC 2242),Enterococcus sp.; Enterococcus faecalis (GC 2242),4 µg/mL
same,MIC Enterococcus faecalis (GC 2691),Enterococcus sp.; Enterococcus faecalis (GC 2691),8 µg/mL
same,MIC Enterococcus faecalis (GC 3059),Enterococcus sp.; Enterococcus faecalis (GC 3059),8 µg/mL
same,MIC Enterococcus faecalis (GC 4552),Enterococcus sp.; Enterococcus faecalis (GC 4552),8 µg/mL
same,MIC Enterococcus faecalis (GC 4553),Enterococcus sp.; Enterococcus faecalis (GC 4553),8 µg/mL
same,MIC Enterococcus faecalis (GC 4554),Enterococcus sp.; Enterococcus faecalis (GC 4554),8 µg/mL
same,MIC Enterococcus faecalis (GC 6189),Enterococcus sp.; Enterococcus faecalis (GC 6189),4 µg/mL
same,MIC Enterococcus faecium (GC 2243),Enterococcus sp.; Enterococcus faecium (GC 2243),8 µg/mL
same,MIC Enterococcus faecium (GC 4556),Enterococcus sp.; Enterococcus faecium (GC 4556),8 µg/mL
same,MIC Enterococcus faecium (GC 4557),Enterococcus sp.; Enterococcus faecium (GC 4557),2 µg/mL
same,MIC Enterococcus faecalis (ATCC 29212),Enterococcus sp.; strain ATCC 29212,8 µg/mL
same,MIC Enterococcus faecalis (GC 2242),Enterococcus sp.; strain GC 2242,4 µg/mL
same,MIC Enterococcus faecium (GC 2243),Enterococcus sp.; strain GC 2243,8 µg/mL
same,MIC Enterococcus faecalis (GC 2691),Enterococcus sp.; strain GC 2691,8 µg/mL
same,MIC Enterococcus faecalis (GC 3059),Enterococcus sp.; strain GC 3059,8 µg/mL
same,MIC Enterococcus faecalis (GC 4552),Enterococcus sp.; strain GC 4552,8 µg/mL
same,MIC Enterococcus faecalis (GC 4553),Enterococcus sp.; strain GC 4553,8 µg/mL
same,MIC Enterococcus faecalis (GC 4554),Enterococcus sp.; strain GC 4554,8 µg/mL
same,MIC Enterococcus faecium (GC 4556),Enterococcus sp.; strain GC 4556,8 µg/mL
same,MIC Enterococcus faecium (GC 4557),Enterococcus sp.; strain GC 4557,2 µg/mL
same,MIC Enterococcus avium (GC 4558),Enterococcus sp.; strain GC 4558,8 µg/mL
same,MIC Enterococcus faecalis (GC 6189),Enterococcus sp.; strain GC 6189,4 µg/mL
same,MIC Escherichia coli (ATCC 25922),Escherichia coli; strain ATCC 25922,64 µg/mL
same,MIC Escherichia coli (GC 4559),Escherichia coli; strain GC 4559,32 µg/mL
same,MIC Escherichia coli (GC 4560),Escherichia coli; strain GC 4560,<0.5 µg/mL
same,MIC Staphylococcus aureus (ATCC 29213),Staphylococcus sp.,1 µg/mL
same,MIC Staphylococcus aureus (GC 1131),Staphylococcus sp.,2 µg/mL
same,MIC Staphylococcus aureus (GC 3051),Staphylococcus sp.,1 µg/mL
same,MIC Staphylococcus aureus (GC 3053),Staphylococcus sp.,4 µg/mL
same,MIC Staphylococcus aureus (GC 4541),Staphylococcus sp.,1 µg/mL
same,MIC Staphylococcus aureus (GC 4542),Staphylococcus sp.,2 µg/mL
same,MIC Staphylococcus aureus (GC 4544),Staphylococcus sp.,2 µg/mL
same,MIC Staphylococcus aureus (GC 4545),Staphylococcus sp.,1 µg/mL
same,MIC Staphylococcus aureus (GC 1131),"Staphylococcus sp.; inoculum 5×10^5 CFU/mL, strain GC 1131",2 µg/mL
same,MIC Staphylococcus aureus (ATCC 29213),Staphylococcus sp.; strain ATCC 29213,1 µg/mL
same,MIC Staphylococcus aureus (GC 3051),Staphylococcus sp.; strain GC 3051,1 µg/mL
same,MIC Staphylococcus aureus (GC 3053),Staphylococcus sp.; strain GC 3053,4 µg/mL
same,MIC Staphylococcus aureus (GC 4541),Staphylococcus sp.; strain GC 4541,1 µg/mL
same,MIC Staphylococcus aureus (GC 4542),Staphylococcus sp.; strain GC 4542,2 µg/mL
same,MIC Staphylococcus aureus-SMITH (GC 4543),Staphylococcus sp.; strain GC 4543,1 µg/mL
same,MIC Staphylococcus aureus (GC 4544),Staphylococcus sp.; strain GC 4544,2 µg/mL
same,MIC Staphylococcus aureus (GC 4545),Staphylococcus sp.; strain GC 4545,1 µg/mL
same,MIC Staphylococcus haemolyticus (GC 4546),Staphylococcus sp.; strain GC 4546,1 µg/mL
same,MIC Coagulase Negative Staphylococcus (GC 4547),Staphylococcus sp.; strain GC 4547,1 µg/mL
same,MIC Coagulase Negative Staphylococcus (GC 4548),Staphylococcus sp.; strain GC 4548,<0.5 µg/mL
same,MIC Coagulase Negative Staphylococcus (GC 4549),Staphylococcus sp.; strain GC 4549,1 µg/mL
same,MIC Coagulase Negative Staphylococcus (GC 4551),Staphylococcus sp.; strain GC 4551,1 µg/mL
same,MIC Coagulase Negative Staphylococcus (GC 6257),Staphylococcus sp.; strain GC 6257,1 µg/mL
same,MIC Staphylococcus aureus-SMITH (GC 4543),Staphylococcus sp.; strain SMITH GC 4543,1 µg/mL
same,MIC Streptococcus agalactiae (GC 4564),Streptococcus sp.; Streptococcus agalactiae (GC 4564),<0.5 µg/mL
same,MIC Streptococcus pneumoniae (ATCC 6301),Streptococcus sp.; Streptococcus pneumoniae (ATCC 6301),<0.5 µg/mL
same,MIC Streptococcus pneumoniae (GC 1894),Streptococcus sp.; Streptococcus pneumoniae (GC 1894),<0.5 µg/mL
same,MIC Streptococcus pneumoniae (GC 4565),Streptococcus sp.; Streptococcus pneumoniae (GC 4565),4 µg/mL
same,MIC Streptococcus pyogenes (GC 4563),Streptococcus sp.; Streptococcus pyogenes (GC 4563),<0.5 µg/mL
same,MIC Streptococcus pneumoniae (ATCC 6301),Streptococcus sp.; strain ATCC 6301,<0.5 µg/mL
same,MIC Streptococcus pneumoniae (GC 1894),Streptococcus sp.; strain GC 1894,<0.5 µg/mL
same,MIC Streptococcus pyogenes (GC 4563),Streptococcus sp.; strain GC 4563,<0.5 µg/mL
same,MIC Streptococcus agalactiae (GC 4564),Streptococcus sp.; strain GC 4564,<0.5 µg/mL
same,MIC Streptococcus pneumoniae (GC 4565),Streptococcus sp.; strain GC 4565,4 µg/mL
